One molecule from patent US11536729B2, “Method of identifying novel protein aggregation inhibitors based on chemical kinetics” (Cambridge Enterprise Limited, priority 2016, dated 2022) can be followed below.

The test system of experiment [1] is C. elegans GMC101 (Aβ-worm). In words: C. elegans motility assay (body bends), Aβ-worm model. Format: in vivo, Caenorhabditis elegans. How it is done: Standard conditions were used for Caenorhabditis elegans propagation at 20° C. (53). Briefly, animals were synchronized by hypochlorite bleaching, hatched overnight in M9 buffer, and subsequently cultured on nematode growth medium (NGM, USP agar) plates seeded with the E. coli strain OP50. Saturated cultures of OP50 were grown by inoculating 50 mL of LB medium with OP50 and incubating the culture for 16 h at 37° C. NGM plates were seeded with bacteria by adding 350 μl of saturated OP50 to each plate and leaving the plates at room temperature for 2-3 days. On day 3 after synchronization, animals were placed on NGM plates containing 5-fluoro-2′deoxy-uridine (FUDR) ([…], unless stated otherwise) to inhibit growth of offspring.
The following strains were used: dvls100[unc-54p::A-beta-1-42::unc-54 3′-UTR+mtl-2p::GFP] (GMC101). mtl-2p::GFP produces constitutive expression of GFP in intestinal cells. unc-54p::A-beta-1-42 expresses full-length human Aβ42 peptide in bodywall muscle cells that aggregates in vivo. Shifting L4 or young adult animals from 20 C° to 25 C° causes paralysis dvls15[pPD30.38 (unc-54 vector)+mtl-2::GFP (pCL26)] (CL2122), control strain for GMC101 (57). Phenotype apparently WT. C. elegans var Bristol (N2). Generation time is about 3 days. Brood size is about 350. Isolated from mushroom compost near Bristol, England. […]
(§1) All populations were cultured at 20° C. and developmentally synchronized from a 4 h egg-lay. At 64-72 h post egg-lay (time zero) individuals were shifted to 23° C. or 25° C., and body movement assessed over time as indicated. At different ages, animals were washed out of the plates with M9 and spread over an un-seeded 6 cm plate, after which their movements were recorded at 30 fps using a home-made microscopic setup, at 0.75× magnification, for 30 s or 1 min. 200 animals were counted per experiment unless stated otherwise. […]
(§2) Videos were elaborated using ImageJ (National Institutes of Health, Bethesda, Md., USA), and body bends were quantified using the wrMTrck plug-in (http://www.phage.dk/plugins/wrmtrck.html), developed by Jesper Søndergaard Pedersen.

The subject of experiment [2] is SH-SY5Y human neuroblastoma cells. In kind it is cell-based. To be noted: 0.5 μM Aβ42, 10 μM bexarotene. On the procedure:
Aβ42 oligomers are known to be toxic to cells leading to apoptosis and to cellular death. […] SH-SY5Y human neuroblastoma cells were cultured under standard conditions, at 37° C. in a humidified incubator with 5% CO2. Cells were seeded at a density of 25,000 per well in a white-walled, clear-bottomed 96-well plate and cultured for 24 h in MEM/F12(1:1)/10% Fetal Bovine Serum (FBS) (Gibco). The culture medium was then replaced with pre-warmed phenol red free DMEM without FBS into which the peptide samples or NaPO4 buffer were diluted 1:1. […] The aggregation reaction was set up as above except for the buffer from which NaN3 was removed due to its toxicity. […] All the specified time points correspond to Aβ42 in the lag phase in order to monitor inhibition at the early stage of the aggregation. […] The cells were cultured in the presence of the peptides, buffer and media for further 24 h before the cytotoxic effect was measured.
Cell medium diluted with the same buffer that was used in these experiments was included in some wells in order to evaluate the intrinsic fluorescence of the media and bexarotene.
For the positive control, staurosporine (1 μM) was added to the cells for 2 hours. Caspase-3/7 activity was measured using the Apo-ONE Homogeneous Caspase-3/7 assay (Promega). The fluorogenic caspase-3/7 substrate, rhodamine 110 bis-(N-CBZ-L-aspartyl-L-glutamyl-L-valyl-aspartic acid amide) was diluted 1:100 in the lysis buffer provided and added to the cell medium at a 1:1 ratio. The fluorescence was measured at excitation 480 nm/emission 520 nm in an Optima FluoStar plate reader. In each of the used plates, the toxicity was assessed according to a negative and a positive control.
For comparative purposes between different plates, we normalized the fluorescence values using a parabolic equation (y=ax^b), which corresponds to the evolution of the oligomers as a function of time. Negative and positive controls were set to 1 and 10, respectively. […] Statistical analyses were performed using GraphPad prism 6.0. Results are expressed as mean±SEM.

The subject of experiment [3] is C. elegans GMC101 (Aβ-worm). The experiment can be described thus: NIAD-4 staining of amyloid aggregates in living C. elegans. Format: in vivo, Caenorhabditis elegans. On the procedure:
Live transgenic animals were incubated with NIAD-4 over a range of concentrations and times, and it was empirically determined that incubation of living animals with 1 μM NIAD-4 (0.1% DMSO in M9 buffer) for four hours at room temperature gave robust and reproducible staining. After staining, animals were Let recover on NGM plates for about 24 hrs to allow destaining via normal metabolism. Stained animals were mounted on 2% agarose pads containing 40 mM NaN3 as anaesthetic on glass microscope slides for imaging. Images were captured with a Zeiss Axio Observer.D1 fluorescence microscope (Carl Zeiss Microscopy GmbH, Jena, Germany) with a 20× objective and a 49004 ET-CY3/TRITC filter (Chroma Technology Corp, Bellows Falls, Vt., USA). Fluorescence intensity was calculated using ImageJ software (National Institutes of Health, Bethesda, Md., USA), and then normalized as the corrected total cell fluorescence (CTCF). Only the head region was considered, due to the high background signal in the guts. All experiments were carried out in triplicate and the data from one representative experiment are shown. Statistical significance was determined using t tests.

Experiment [4] has as its system C. elegans CL2122 (control-worm). The experiment can be described thus: C. elegans motility assay, control-worm model. Also noted: species or system Caenorhabditis elegans. To be noted: in vivo. On the procedure:
Standard conditions were used for Caenorhabditis elegans propagation at 20° C. (53). Briefly, animals were synchronized by hypochlorite bleaching, hatched overnight in M9 buffer, and subsequently cultured on nematode growth medium (NGM, USP agar) plates seeded with the E. coli strain OP50. Saturated cultures of OP50 were grown by inoculating 50 mL of LB medium with OP50 and incubating the culture for 16 h at 37° C. NGM plates were seeded with bacteria by adding 350 μl of saturated OP50 to each plate and leaving the plates at room temperature for 2-3 days. […]
as §1, §2

Entries after “also recorded” stand apart in the source; their conditions may differ. Where two headings read alike, the source gives them in different places.

As to `C=C(c1ccc(C(=O)O)cc1)c1cc2c(cc1C)C(C)(C)CCC2(C)C` [bexarotene], the “motility (frequency of body bends) of Aβ-worms” value in experiment [1] (10 μM, two bursts at L1 and L4 larval stages) is “maintained completely; also recorded: Complete recovery”. The “motility of Aβ-worms, concentration dependence” value in experiment [1] (5 to 10 μM added at larval stages) is listed as “concentration-dependent maintenance”. Also, the “effect on motility of Aβ-worms when added only at day 2” value in experiment [1] (added only at day 2) was “did not show any detectable effect”. Moreover, in experiment [2] (37° C.), the “incubation time after which detectable toxic Aβ42 species are formed in presence of compound” value came out at 7 h. In addition, the “toxicity (caspase-3) of Aβ42 species in absence of bexarotene, higher than in its presence” value in experiment [2] (aliquot after 0.3 h incubation) and in experiment [2] (aliquot after 4 h incubation) was 65±5% each time. For the same molecule, in experiment [2] (aliquot after 7 h incubation), the “level of toxicity generated in the presence of bexarotene” value is “increased to a value similar to that observed in its absence”. Also, the “time for which formation of Aβ42 fibrils was suppressed” value in experiment [3] (10 μM) is reported as 9 days of adulthood. Moreover, the “level of aggregates (NIAD-4 fluorescence)” value in experiment [3] (Aβ-worm model in the presence of bexarotene) was “essentially no aggregates being detected”. In addition, the “effect in control-worm model” value in experiment [4] is recorded as “did not show any effects”.
